Tests used:
CD34^+ cells = assay: Expansion of CD34+ cells using human cord blood-derived CD34+ cells (Assay Example 1); type: cell-based; details: 100 ng/mL SCF, 7 days, based on the number of CD34^+ cells in the absence of compound
Method: (§1) Human cord blood-derived CD34^+ cells were purchased from Lonza and plated on a 24-well plate (Corning) (10000 cells/1 mL/well). As the culture medium, StemSpan SFEM (StemCell Technologies) containing 100 ng/mL SCF (Wako Pure Chemical Industries) was used, and one of Compounds No. 1 to 72 dissolved in dimethyl sulfoxide was added in an amount of 0.1% (v/v) to a final concentration of 1 or 3 μg/mL. As a positive control, TPO (PeproTech) was used at a final concentration of 10 ng/mL.
(§2) After the cells were incubated in liquid culture at 37° C. for 7 days in a CO2 incubator (5% CO2), the number of viable cells was counted by trypan blue assay. The number of CD34^+CD38^− cells was calculated as follows. After the incubation, the cells in the liquid culture was stained with a CD34 antibody (APC, Becton, Dickinson and Company) and a CD38 antibody (PE, Becton, Dickinson and Company), then washed with PBS(−) containing 2% (v/v) FBS and stained with propidium iodide (Sigma-Aldrich Japan) added to a final concentration of 5 μg/mL. The stained cells were analyzed with a BD FACSCANTO™ II flow cytometer (Becton, Dickinson and Company) to determined the proportions of CD34^+ cells and CD34^+CD38^− cells, which was multiplied by the number of viable cells to calculate the numbers of CD34^+ cells and CD34^+CD38^− cells.
(§3) The expansion efficiencies in the presence of 1 or 3 μg/mL of compounds based on the number of CD34^+ cells in the absence of them are shown in Tables 3-1 and 3-2 on a scale of A for expansion efficiencies of 6 or greater, B for expansion efficiencies of at least 4 and less than 6, and C for expansion efficiencies of at least 2 and less than 4. The expansion efficiencies in the presence of 1 or 3 μg/mL of compounds based on the number of CD34^+CD38^− cells in the absence of them are shown in Tables 4-1 and 4-2 on a scale of A for expansion efficiencies of 10 or greater, B for expansion efficiencies of at least 5 and less than 10, and C for expansion efficiencies of at least 3 and less than 5. Further, in Table 3, the compounds with an expansion efficiency twice or more greater than that of TPO are marked with O.

CD34^+CD38^− cells = assay: Expansion of CD34+CD38- cells using human cord blood-derived CD34+ cells (Assay Example 1); type: cell-based; details: for Comparison with TPO: CD34^+CD38^− cells; for Expansion efficiency (CD34^+CD38^− cells): 100 ng/mL SCF, 7 days, based on the number of CD34^+CD38^− cells in the absence of compound
Method: as §1, §2, §3

[1] = 3 μg/mL compound vs TPO 10 ng/mL

| Structure (SMILES) | Expansion efficiency (CD34^+ cells) (CD34^+ cells; 3 μg/mL compound) | Comparison with TPO (CD34^+CD38^− cells; [1]) | Expansion efficiency (CD34^+CD38^− cells) (CD34^+CD38^− cells; 3 μg/mL compound) | Expansion efficiency (CD34^+ cells) (CD34^+ cells; 1 μg/mL compound) | Comparison with TPO (CD34^+CD38^− cells; 1 μg/mL compound vs TPO 10 ng/mL) | Expansion efficiency (CD34^+CD38^− cells) (CD34^+CD38^− cells; 1 μg/mL compound) |
| --- | --- | --- | --- | --- | --- | --- |
| CC(=NNC(=O)c1ccc(C(=O)NCc2ccc(C(=O)NCCN(CCO)CCO)cc2)s1)c1csc(-c2ccc(C(C)(C)C)cc2)c1O [compound 23] | A (A for expansion efficiencies of 6 or greater) | ∘ | A (A for expansion efficiencies of 10 or greater) | – | – | – |
| COCCOCCNC(=O)c1ccc(CNC(=O)c2ccc(C(=O)NN=C(C)c3csc(-c4ccc(C(C)(C)C)cc4)c3O)s2)cc1 [compound 32] | A (A for expansion efficiencies of 6 or greater) | ∘ | A (A for expansion efficiencies of 10 or greater) | – | – | – |
| CC(=NNC(=O)c1ccc(C(=O)NCc2ccc(CC(N)=O)cc2)s1)c1csc(-c2ccc(C(C)(C)C)cc2)c1O [compound 67] | – | – | – | B (B for expansion efficiencies of at least 4 and less than 6) | ∘ | A (A for expansion efficiencies of 10 or greater) |
| CC(=NNC(=O)c1ccc(C(=O)NCc2ccc(C(=O)NCCN3CCOCC3)cc2)s1)c1csc(-c2ccc(Br)cc2)c1O [compound 21] | A (A for expansion efficiencies of 6 or greater) | ∘ | A (A for expansion efficiencies of 10 or greater) | – | – | – |
| CCCCCCOCCOCCNC(=O)c1ccc(CNC(=O)c2ccc(C(=O)NN=C(C)c3csc(-c4ccc(C(C)(C)C)cc4)c3O)s2)cc1 [compound 38] | C (C for expansion efficiencies of at least 2 and less than 4) | – | A (A for expansion efficiencies of 10 or greater) | – | – | – |
| CC(=NNC(=O)c1ccc(C(=O)NCc2ccc(S(=O)(=O)NCCOCCO)cc2)s1)c1csc(-c2ccc(Br)cc2)c1O [compound 3] | C (C for expansion efficiencies of at least 2 and less than 4) | – | A (A for expansion efficiencies of 10 or greater) | – | – | – |
| COc1ccc(-c2scc(C(C)=NNC(=O)c3ccc(C(=O)NCc4ccc(C(=O)NCCOCCO)cc4)s3)c2O)cc1 [compound 65] | C (C for expansion efficiencies of at least 2 and less than 4) | – | B (B for expansion efficiencies of at least 5 and less than 10) | – | – | – |
| CC(=NNC(=O)c1ccc(C(=O)NCc2ccc(C(=O)NCCO)cc2)s1)c1csc(-c2ccc(C(C)(C)C)cc2)c1O [compound 14] | – | – | – | A (A for expansion efficiencies of 6 or greater) | – | A (A for expansion efficiencies of 10 or greater) |
| CC(=NNC(=O)c1ccc(C(=O)NCc2ccc(C(=O)NCc3ccccn3)cc2)s1)c1csc(-c2ccc(C(C)(C)C)cc2)c1O [compound 5] | B (B for expansion efficiencies of at least 4 and less than 6) | – | A (A for expansion efficiencies of 10 or greater) | – | – | – |
| CC(=NNC(=O)c1ccc(C(=O)NCc2ccc(CC(N)=O)cc2)s1)c1csc(-c2ccc(Cl)cc2)c1O [compound 70] | A (A for expansion efficiencies of 6 or greater) | ∘ | A (A for expansion efficiencies of 10 or greater) | – | – | – |
| CC(=NNC(=O)c1ccc(C(=O)NCc2ccc(C(=O)NCCOCCO)cc2)s1)c1csc(-c2ccc(Cl)cc2)c1O [compound 63] | A (A for expansion efficiencies of 6 or greater) | ∘ | A (A for expansion efficiencies of 10 or greater) | – | – | – |
| CC(=NNC(=O)c1ccc(C(=O)NCc2ccc(C(=O)NCc3ccccn3)cc2)s1)c1csc(-c2ccc(Cl)c(Cl)c2)c1O [compound 4] | C (C for expansion efficiencies of at least 2 and less than 4) | – | B (B for expansion efficiencies of at least 5 and less than 10) | – | – | – |
| CC(=NNC(=O)c1ccc(C(=O)NCc2ccc(C(=O)NCCN3CCNCC3)cc2)s1)c1csc(-c2ccc(Br)cc2)c1O [compound 30] | A (A for expansion efficiencies of 6 or greater) | ∘ | A (A for expansion efficiencies of 10 or greater) | – | – | – |
| COCCOCCNC(=O)c1ccc(CNC(=O)c2ccc(C(=O)NN=C(C)c3csc(-c4ccc(Cl)c(Cl)c4)c3O)s2)cc1 [compound 31] | C (C for expansion efficiencies of at least 2 and less than 4) | – | A (A for expansion efficiencies of 10 or greater) | – | – | – |
| CC(=NNC(=O)c1ccc(C(=O)NCc2ccc(CC(N)=O)cc2)s1)c1csc(-c2ccc(Cl)c(Cl)c2)c1O [compound 66] | C (C for expansion efficiencies of at least 2 and less than 4) | – | A (A for expansion efficiencies of 10 or greater) | – | – | – |
| CC(=NNC(=O)c1ccc(C(=O)NCc2ccc(C(=O)NCCN(CCO)CCO)cc2)s1)c1csc(-c2ccc(Cl)c(Cl)c2)c1O [compound 22] | A (A for expansion efficiencies of 6 or greater) | ∘ | A (A for expansion efficiencies of 10 or greater) | – | – | – |
| CC(=O)NCc1ccc(CNC(=O)c2ccc(C(=O)NN=C(C)c3csc(-c4ccc(Cl)cc4)c3O)s2)cc1 [compound 56] | – | – | – | A (A for expansion efficiencies of 6 or greater) | – | A (A for expansion efficiencies of 10 or greater) |
| CC(=NNC(=O)c1ccc(C(=O)NCc2ccc(C(=O)NCCOCCO)cc2)s1)c1csc(-c2ccc(C(F)(F)F)cc2)c1O [compound 62] | A (A for expansion efficiencies of 6 or greater) | ∘ | A (A for expansion efficiencies of 10 or greater) | – | – | – |
| COCCOCCNC(=O)c1ccc(CNC(=O)c2ccc(C(=O)NN=C(C)c3csc(-c4ccc(Br)cc4)c3O)s2)cc1 [compound 33] | A (A for expansion efficiencies of 6 or greater) | ∘ | A (A for expansion efficiencies of 10 or greater) | – | – | – |
| COc1ccc(-c2scc(C(C)=NNC(=O)c3ccc(C(=O)NCc4ccc(CNC(C)=O)cc4)s3)c2O)cc1 [compound 58] | – | – | – | B (B for expansion efficiencies of at least 4 and less than 6) | – | A (A for expansion efficiencies of 10 or greater) |
| CC(=NNC(=O)c1ccc(C(=O)NCc2ccc(S(=O)(=O)NCCOCCO)cc2)s1)c1csc(-c2ccc(C(C)(C)C)cc2)c1O [compound 2] | B (B for expansion efficiencies of at least 4 and less than 6) | – | A (A for expansion efficiencies of 10 or greater) | – | – | – |
| CC(=NNC(=O)c1ccc(C(=O)NCc2ccc(CC(N)=O)cc2)s1)c1csc(-c2ccc(Br)cc2)c1O [compound 68] | A (A for expansion efficiencies of 6 or greater) | ∘ | A (A for expansion efficiencies of 10 or greater) | – | – | – |
| C/C(=N\NC(=O)c1ccc(C(=O)NCc2ccc(S(=O)(=O)NCCOCCO)cc2)s1)c1csc(-c2ccc(Cl)c(Cl)c2)c1O [compound 1] | C (C for expansion efficiencies of at least 2 and less than 4) | – | A (A for expansion efficiencies of 10 or greater) | – | – | – |
| CC(=NNC(=O)c1ccc(C(=O)NCc2ccc(C(=O)NCCN3CCOCC3)cc2)s1)c1csc(-c2ccc(C(C)(C)C)cc2)c1O [compound 20] | B (B for expansion efficiencies of at least 4 and less than 6) | ∘ | A (A for expansion efficiencies of 10 or greater) | – | – | – |
| CC(=O)NCc1ccc(CNC(=O)c2ccc(C(=O)NN=C(C)c3csc(-c4ccc(OC(F)(F)F)cc4)c3O)s2)cc1 [compound 57] | B (B for expansion efficiencies of at least 4 and less than 6) | – | A (A for expansion efficiencies of 10 or greater) | – | – | – |
| CC(=NNC(=O)c1ccc(C(=O)NCc2ccc(CC(N)=O)cc2)s1)c1csc(-c2ccc(OC(F)(F)F)cc2)c1O [compound 71] | A (A for expansion efficiencies of 6 or greater) | – | A (A for expansion efficiencies of 10 or greater) | – | – | – |

Source: US9328085B2, “Heterocyclic compounds and expansion agents for hematopoietic stem cells” (NISSAN CHEMICAL INDUSTRIES, LTD., priority 2009, dated 2016)
